# Measurements taken from ChEMBL document CHEMBL4251740, “Further Exploring Solvent-Exposed Tolerant Regions of Allosteric Binding Pocket for Novel HIV-1 NNRTIs Discovery” (ACS Med Chem Lett, 2018).
# Active and inactive are the calls of the source. The rule behind the calls is not given here.
# Experiments:
# [1] = Selectivity index, ratio of CC50 for human MT4 cells to EC50 for wild-type HIV1 3B reverse transcriptase infected in human MT4 cells; format: toxicity, cell-based; conditions: read-out: Ratio CC50/EC50
# MT4 = assay: (§1) Cytotoxicity against human MT4 cells assessed as reduction in cell viability by MTT assay; format: cell-based; conditions: mt4
# [2] = Selectivity index, ratio of CC50 for human MT4 cells to EC50 for HIV1 RES056 reverse transcriptase K103N/Y181C double mutant infected in human MT4 cells; format: toxicity, cell-based; conditions: read-out: Ratio CC50/EC50
# [3] = as §1; format: cell-based; conditions: MT4 cells
# [4] = test system: Human immunodeficiency virus type 1 reverse transcriptase (Human immunodeficiency virus 1), Q72547 [L100I]; assay: Inhibition of HIV1 reverse transcriptase L100I mutant infected in human MT4 cells assessed as protection against virus-induced cytotoxicity by MTT assay; format: cell-based
# [5] = test system: Human immunodeficiency virus type 1 reverse transcriptase (Human immunodeficiency virus 1), Q72547 [Y181C]; assay: Inhibition of HIV1 reverse transcriptase Y181C mutant infected in human MT4 cells assessed as protection against virus-induced cytotoxicity by MTT assay; format: cell-based
# [6] = test system: Human immunodeficiency virus type 1 reverse transcriptase (Human immunodeficiency virus 1), Q72547 [K103N]; assay: Inhibition of HIV1 reverse transcriptase K103N mutant infected in human MT4 cells assessed as protection against virus-induced cytotoxicity by MTT assay; format: cell-based
# [7] = test system: Human immunodeficiency virus type 1 reverse transcriptase (Human immunodeficiency virus 1), Q72547 [F227L,V106A]; assay: Inhibition of HIV1 RES056 reverse transcriptase F227L/V106A double mutant infected in human MT4 cells assessed as protection against virus-induced cytotoxicity by MTT assay; format: cell-based
# [8] = test system: Human immunodeficiency virus type 1 reverse transcriptase (Human immunodeficiency virus 1), Q72547 [R221A]; assay: Inhibition of HIV1 reverse transcriptase Y188L mutant infected in human MT4 cells assessed as protection against virus-induced cytotoxicity by MTT assay; format: cell-based
# [9] = test system: Human immunodeficiency virus type 1 reverse transcriptase (Human immunodeficiency virus 1), Q72547 [R221A]; assay: Potency index, ratio of ETV EC50 to test compound EC50 for HIV1 reverse transcriptase Y188L mutant infected in human MT4 cells; format: cell-based
# [10] = test system: Human immunodeficiency virus type 1 reverse transcriptase (Human immunodeficiency virus 1), Q72547 [K103N,Y181C]; assay: Potency index, ratio of ETV EC50 to test compound EC50 for HIV1 RES056 reverse transcriptase K103N/Y181C double mutant infected in human MT4 cells; format: cell-based
# [11] = test system: Human immunodeficiency virus type 1 reverse transcriptase (Human immunodeficiency virus 1), Q72547 [E138K]; assay: Potency index, ratio of ETV EC50 to test compound EC50 for HIV1 reverse transcriptase E138K mutant infected in human MT4 cells; format: cell-based
# [12] = test system: Human immunodeficiency virus type 1 reverse transcriptase (Human immunodeficiency virus 1), Q72547 [L100I]; assay: Potency index, ratio of ETV EC50 to test compound EC50 for HIV1 reverse transcriptase L100I mutant infected in human MT4 cells; format: cell-based
# [13] = test system: Human immunodeficiency virus type 1 reverse transcriptase (Human immunodeficiency virus 1), Q72547 [K103N]; assay: Potency index, ratio of ETV EC50 to test compound EC50 for HIV1 reverse transcriptase K103N mutant infected in human MT4 cells; format: cell-based
# [14] = test system: Human immunodeficiency virus type 1 reverse transcriptase (Human immunodeficiency virus 1), Q72547 [F227L,V106A]; assay: Potency index, ratio of ETV EC50 to test compound EC50 for HIV1 RES056 reverse transcriptase F227L/V106A double mutant infected in human MT4 cells; format: cell-based
# [15] = test system: Human immunodeficiency virus 1; assay: Fold resistance, ratio of EC50 for HIV1 reverse transcriptase K103N mutant infected in human MT4 cells to EC50 for wild-type HIV1 3B reverse transcriptase infected in human MT4 cells; format: cell-based
# [16] = biological target: Human immunodeficiency virus type 1 reverse transcriptase (Human immunodeficiency virus 1) (UniProt Q72547); assay: Potency index, ratio of ETV EC50 to test compound EC50 for wild-type HIV1 3B reverse transcriptase infected in human MT4 cells; format: cell-based
# [17] = test system: Human immunodeficiency virus 1; assay: Fold resistance, ratio of EC50 for HIV1 reverse transcriptase E138K mutant infected in human MT4 cells to EC50 for wild-type HIV1 3B reverse transcriptase infected in human MT4 cells; format: cell-based
# [18] = test system: Human immunodeficiency virus 1; assay: Fold resistance, ratio of EC50 for HIV1 reverse transcriptase Y181C mutant infected in human MT4 cells to EC50 for wild-type HIV1 3B reverse transcriptase infected in human MT4 cells; format: cell-based
SMILES,selectivity ratio [1],selectivity ratio [2],CC50 [3],also measured
Cc1cc(C#N)cc(C)c1Oc1nc(NC2CCN(Cc3ccc(C(N)=O)cc3)CC2)nc2ccn(S(=O)(=O)c3ccccc3)c12,227,2,,CC50 (MT4): > 39.3 µM
Cc1cc(C#N)cc(C)c1Nc1nc(NC2CCN(Cc3ccc(S(N)(=O)=O)cc3)CC2)nc2ccsc12,> 159000,> 7440,> 227 µM,
Cc1cc(C#N)cc(C)c1Oc1nc(NC2CCN(Cc3ccc(S(C)(=O)=O)cc3)CC2)nc2ccn(S(=O)(=O)c3ccccc3)c12,270,26,5.15 µM,
Cc1cc(C#N)cc(C)c1Oc1nc(NC2CCN(Cc3ccco3)CC2)nc2ccsc12,> 76500,,> 254 µM,inhibition [4]: inactive; inhibition [5]: inactive; inhibition [6]: Active; inhibition [7]: inactive; inhibition [8]: inactive
Cc1cc(C#N)cc(C)c1Oc1nc(NC2CCN(Cc3ccc(S(N)(=O)=O)cc3)CC2)nc2cc[nH]c12,1050,61,1.91 µM,Ratio EC50 [9]: 4 to 5; Ratio EC50 [10]: 1.5 to 2.6; Ratio EC50 [11]: 4 to 5; Ratio EC50 [12]: 1.5 to 2.6; Ratio EC50 [13]: 4 to 5; Ratio EC50 [14]: 1.5 to 2.6; Ratio EC50 [15]: 0.3 to 0.6; Ratio EC50 [16]: 1.5 to 2.6
Cc1cc(C#N)cc(C)c1Oc1nc(NC2CCN(Cc3cn(S(C)(=O)=O)cn3)CC2)nc2ccsc12,3720,8,21.1 µM,inhibition [4]: inactive; inhibition [5]: inactive; inhibition [7]: inactive; inhibition [8]: inactive
Cc1cc(C#N)cc(C)c1Oc1nc(NC2CCN(Cc3n[nH]c(=O)n3C)CC2)nc2ccsc12,> 18500,> 15,> 254 µM,
O=C1Nc2ccc(Cl)cc2[C@@](C#CC2CC2)(C(F)(F)F)O1 [EFAVIRENZ],,,> 6.34 µM,
Cc1cn([C@H]2C[C@H](N=[N+]=[N-])[C@@H](CO)O2)c(=O)[nH]c1=O [ZIDOVUDINE],> 1000,> 448,7.48 µM,
Cc1cc(C#N)cc(C)c1Oc1nc(NC2CCN(Cc3cc(=O)[nH]c(=O)[nH]3)CC2)nc2ccsc12,18600,15,133 µM,inhibition [4]: inactive; inhibition [5]: inactive; inhibition [7]: inactive; inhibition [8]: inactive
Cc1cc(C#N)cc(C)c1Oc1nc(NC2CCN(Cc3ccc(C(N)=O)cc3)CC2)nc2ccn(COCc3ccccc3)c12,177,9,6.44 µM,Ratio EC50 [17]: 0.9; Ratio EC50 [18]: 0.5 to 0.7
Cc1cc(C#N)cc(C)c1Oc1nc(NC2CCN(Cc3ccc(C(N)=O)cc3)CC2)nc2cc[nH]c12,1830,118,15.9 µM,Ratio EC50 [15]: 0.3 to 0.6
Cc1cc(C#N)cc(C)c1Oc1nc(NC2CCN(Cc3ccc(S(N)(=O)=O)cc3)CC2)nc2ccn(S(=O)(=O)c3ccccc3)c12,454,33,3.67 µM,
Cc1cc(C#N)cc(C)c1Oc1nc(NC2CCN(Cc3ccc(S(N)(=O)=O)cc3)CC2)nc2ccn(COCc3ccccc3)c12,632,10,4.84 µM,Ratio EC50 [18]: 0.5 to 0.7
Cc1cc(C#N)cc(C)c1Oc1nc(NC2CCN(Cc3c[nH]cn3)CC2)nc2ccsc12,4420,21,24.3 µM,inhibition [4]: inactive; inhibition [5]: inactive; inhibition [7]: inactive; inhibition [8]: inactive
Cc1cc(C#Cc2cccnc2)cc(C)c1Oc1nc(NC2CCN(Cc3ccc(S(N)(=O)=O)cc3)CC2)nc2ccsc12,157,42,6.39 µM,
Cc1cc(C#Cc2ccccn2)cc(C)c1Oc1nc(NC2CCN(Cc3ccc(S(N)(=O)=O)cc3)CC2)nc2ccsc12,1130,12,10.3 µM,
Cc1cc(C#N)cc(C)c1Oc1nc(NC2CCN(Cc3ccc(N4CCCC4)cc3)CC2)nc2ccsc12,133,< 1,4.35 µM,
Cc1cc(C#N)cc(C)c1Oc1nc(Nc2ccc(C#N)cc2)nc(N)c1Br [ETRAVIRINE],,,2.16 to 4.59 µM,
Cc1ccnc2c1NC(=O)c1cccnc1N2C1CC1 [NEVIRAPINE],,,> 15 µM,
Cc1cc(C#N)cc(C)c1Oc1nc(NC2CCN(Cc3ccc(S(C)(=O)=O)cc3)CC2)nc2ccn(COCc3ccccc3)c12,459,17,10 µM,Ratio EC50 [18]: 0.5 to 0.7
Cc1cc(/C=C/C#N)cc(C)c1Nc1nc(NC2CCN(Cc3ccc(S(N)(=O)=O)cc3)CC2)nc2ccsc12,1880,419,2.3 µM,
Cc1cc(C#N)cc(C)c1Oc1nc(NC2CCN(Cc3ccc(S(C)(=O)=O)cc3)CC2)nc2cc[nH]c12,589,16,8.12 µM,Ratio EC50 [15]: 0.3 to 0.6
Cc1cc(C#Cc2ccncc2)cc(C)c1Oc1nc(NC2CCN(Cc3ccc(S(N)(=O)=O)cc3)CC2)nc2ccsc12,340,52,11.5 µM,
